Patent US11807650B2, “NMDA receptor modulators and uses thereof” (Novartis AG, priority 2016, dated 2023)

Columns and labels:
[1] = biological target: T1, human GRIN1 (transcript variant NR1-3) and GRIN2D expressed in Xenopus oocytes (Homo sapiens, UniProt O15399); assay: NR2D oocyte potentiation assay (two-electrode voltage clamp); type: cell-based; conditions: 10 uM test compound; glutamate and glycine 10 μM each; holding potential −40 mV
T1 construct: GenScript (GRIN2D synthesis) SC115601; host or cells: Xenopus oocytes injected with cRNA (1 GluN1 : 2 GluN2)
Summary of the method: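 Xenopus oocytes were defolliculated with collagenase, then injected with 50 nL of cRNA encoding human GluN1 (NR1-3 variant) and GluN2D mixed 1:2 and kept 72 h at 16° C. Two-electrode voltage clamp at −40 mV recorded currents; after 10 μM glutamate plus 10 μM glycine reached plateau, test compound was added until a new plateau formed.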

[2] = biological target: T2, human GRIN1 (variant NR1-3) and GRIN2D expressed in HEK293 cells (Homo sapiens, UniProt O15399); assay: GluN2D PAM CIQ fluorescence assay (Fluo-8 calcium, FDSS 6000); type: cell-based; conditions: relative to CIQ (100 uM) = 100%, read-out: NR2D Percent CIQ Avg Max Measured Effect
T2 construct: GenScript (GRIN2D synthesis) SC115601; host or cells: HEK293
Method: GluN2D PAM CIO Flourescence AssayHEK293 cells were transfected to express human GRIN1 (variant NR1-3, Origene, SKU #: SC115601, Rockville, Md.) and GRIN2D (NCBI locus NM_000836, sequence optimized and synthesized by GenScript) and grown as an adherent monolayer at 37° C., 5% CO2 in DMEM/Ham's F12+10% FBS (Hyclone SH3007.03T in the presence of 2.5 mM ARL-15896 (AdooQ Bioscience, Irvine Calif.). To prepare the cells for an experiment, they were rinsed with Dulbecco's PBS (Ca^2+ and Mg^2+ free) and detached from the flask with TrypLE™ Express (Life Technologies, Carlsbad, Calif.) using the manufacturer's recommended methods. Cells collected from the flask were washed twice in Ca^2+/Mg^2+-free Hanks Balanced Salt Solution+20 mM HEPES (HBSS), and counted and assessed for viability with trypan blue. Washed cells were then dye-loaded by resuspending in Fluo-8/AM calcium sensitive dye plus Component B (AAT Bioquest, Sunnyvale, Calif.) diluted in HBSS. To allow cells to take up fluo-8 dye, they were incubated in the dark for 15 min at 37° C., followed by 30 min at 22-25° C. After dye-loading, cells were washed and resuspended in HBSS and plated in 384-well plates (Falcon 353962; Corning, Big Flats, N.Y.) at 20,000-30,000 cells/well in a final volume of 25 μl/well. The cell plates were centrifuged at 200×g, for 2 minutes at 21° C., to create a monolayer of cells at the bottom of the wells.
To initiate an assay, 10 μl of test compound or buffer was added to each well of the cell plate and pre-incubated for 10 minutes in the dark. After 10 minutes, the cell plate was placed in a FDSS 6000 plate reader (Hamamatsu Photonics, Middlesex, N.J.); baseline fluorescence readings were collected for 20 seconds. Next, 25 μl of agonist solution (3 μM glutamate, 3 μM glycine, and 1 mM Ca^2+ in HBSS) was added and the change in fluorescence was recorded for 3 minutes.
Results were calculated by comparing the effects of test compounds to that of the literature standard GluN2C/D PAM CIQ (100 uM). The increase in fluorescence in the presence of CIQ minus the increase induced by glutamate+glycine alone was set to 100%. Responses induced by compounds that were larger than gain the presence of the standard concentration of CIQ were greater than 100% and lesser responses were less than 100%.

T1 sequence (O15399 28-1336, other chains not shown): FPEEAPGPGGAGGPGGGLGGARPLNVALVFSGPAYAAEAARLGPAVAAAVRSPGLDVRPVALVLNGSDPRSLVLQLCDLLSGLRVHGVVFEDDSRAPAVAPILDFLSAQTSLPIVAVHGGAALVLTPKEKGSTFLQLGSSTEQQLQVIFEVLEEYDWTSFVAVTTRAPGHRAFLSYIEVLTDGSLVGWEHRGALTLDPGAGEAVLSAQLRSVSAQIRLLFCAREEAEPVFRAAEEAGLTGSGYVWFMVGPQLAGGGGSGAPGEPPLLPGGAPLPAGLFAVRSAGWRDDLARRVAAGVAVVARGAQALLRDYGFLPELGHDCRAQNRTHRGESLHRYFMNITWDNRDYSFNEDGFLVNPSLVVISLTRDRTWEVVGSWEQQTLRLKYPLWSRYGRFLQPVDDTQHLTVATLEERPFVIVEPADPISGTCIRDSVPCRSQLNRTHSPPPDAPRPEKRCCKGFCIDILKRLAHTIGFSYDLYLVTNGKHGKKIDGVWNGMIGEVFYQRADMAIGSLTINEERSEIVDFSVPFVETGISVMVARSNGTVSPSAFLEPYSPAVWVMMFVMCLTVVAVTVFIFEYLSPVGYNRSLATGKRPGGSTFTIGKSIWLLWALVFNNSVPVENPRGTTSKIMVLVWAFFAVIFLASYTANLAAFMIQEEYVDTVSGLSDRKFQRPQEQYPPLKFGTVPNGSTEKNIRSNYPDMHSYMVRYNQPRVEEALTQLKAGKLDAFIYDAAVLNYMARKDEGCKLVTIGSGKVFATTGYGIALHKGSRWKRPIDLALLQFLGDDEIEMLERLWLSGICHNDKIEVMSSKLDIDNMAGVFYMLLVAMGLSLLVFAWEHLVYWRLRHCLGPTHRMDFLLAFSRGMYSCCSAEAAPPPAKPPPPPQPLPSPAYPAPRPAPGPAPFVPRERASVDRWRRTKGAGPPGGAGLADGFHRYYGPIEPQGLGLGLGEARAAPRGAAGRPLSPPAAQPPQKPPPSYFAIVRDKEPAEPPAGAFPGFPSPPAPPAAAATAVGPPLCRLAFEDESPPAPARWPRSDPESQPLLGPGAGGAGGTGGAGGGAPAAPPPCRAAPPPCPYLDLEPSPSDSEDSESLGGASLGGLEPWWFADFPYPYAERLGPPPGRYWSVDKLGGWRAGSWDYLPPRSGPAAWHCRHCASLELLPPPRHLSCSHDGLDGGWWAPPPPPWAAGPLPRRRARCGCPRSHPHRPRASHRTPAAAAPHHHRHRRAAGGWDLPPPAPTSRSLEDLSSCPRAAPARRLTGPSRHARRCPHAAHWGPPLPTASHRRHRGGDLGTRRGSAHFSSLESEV
T2 sequence (O15399 28-1336, other chains not shown): as above

Row | SMILES | activation at 10 µM [1] [%] | Emax [2] [%] | NR2D Oocyte % Potentiation @ 10 uM [1]
1 | COc1ccc(-c2nc3n(c(=O)c2C#N)CCS3)c(OC)c1 [Example 208, 7-(2,4-dimethoxyphenyl)-5-oxo-2H,3H,5H-[1,3]thiazolo[3,2-a]pyrimidine-6-carbonitrile] | – | 50 to 100 | Inhibitor
2 | CC1CSc2nc(-c3ccc(C(C)(C)C)cc3)c(C#N)c(=O)n2C1 (stereo not shown) [Example 199, 8-(4-tert-butylphenyl)-3,4-dihydro-3-methyl-6-oxo-2H,6H-pyrimido[2,1-b][1,3]thiazine-7-carbonitrile] | > 1000 | 100 to 200 | –
3 | CC1CSc2nc(-c3cnc(C(C)(C)C)nc3)c(C#N)c(=O)n2C1 (stereo not shown) [Example 49, 8-(2-(tert-butyl)pyrimidin-5-yl)-3-methyl-6-oxo-3,4-dihydro-2H,6H-pyrimido[2,1-b][1,3]thiazine-7-carbonitrile] | > 1000 | > 200 | –
4 | CC(C)(C)c1ccc(-c2nc3n(c(=O)c2C#N)CC(O)CS3)cc1 (stereo not shown) [Example 200, 8-(4-tert-butylphenyl)-3,4-dihydro-3-hydroxy-6-oxo-2H,6H-pyrimido[2,1-b][1,3]thiazine-7-carbonitrile] | < 10 | 50 to 100 | –
5 | CSc1ccc(-c2nc3n(c(=O)c2C#N)CCS3)cc1 [Example 207, 7-[4-(methylsulfanyl)phenyl]-5-oxo-2H,3H,5H-[1,3]thiazolo[3,2-a]pyrimidine-6-carbonitrile] | – | 100 to 200 | –
6 | N#Cc1c(-c2ccc(-c3ccccc3)cc2F)nc2n(c1=O)CCCS2 [Example 194, 3,4-dihydro-8-(2-fluoro-4-phenylphenyl)-6-oxo-2H,6H-pyrimido[2,1-b][1,3]thiazine-7-carbonitrile] | – | 10 to 50 | –
7 | CC(C)(C)c1ccc(-c2nc3scc(N)n3c(=O)c2C#N)cc1 [Example 210, 3-amino-7-(4-tert-butylphenyl)-5-oxo-5H-thiazolo[3,2-a]pyrimidine-6-carbonitrile] | – | 10 to 50 | –
8 | CC1CSc2nc(-c3ccc(C4(C(F)(F)F)CC4)cc3)c(C#N)c(=O)n2C1 (stereo not shown) [Example 46, 3-methyl-6-oxo-8-(4-(1-(trifluoromethyl)cyclopropyl)phenyl)-3,4-dihydro-2H,6H-pyrimido[2,1-b][1,3]thiazine-7-carbonitrile] | 100 to 500 | – | –
9 | CC1CSc2nc(-c3ccc(C45CC(C4)C5)nc3C34CC(C3)C4)c(C#N)c(=O)n2C1 (stereo not shown) [Example 150, 8-(2,6-di(bicyclo[1.1.1]pentan-1-yl)pyridin-3-yl)-3-methyl-6-oxo-3,4-dihydro-2H,6H-pyrimido[2,1-b][1,3]thiazine-7-carbonitrile] | – | – | Inhibitor
10 | CC(C)(C)c1ncc(-c2nc3n(c(=O)c2C#N)CC(CO)CS3)cn1 (stereo not shown) [Example 90, 8-(2-(tert-butyl)pyrimidin-5-yl)-3-(hydroxymethyl)-6-oxo-3,4-dihydro-2H,6H-pyrimido[2,1-b][1,3]thiazine-7-carbonitrile] | 500 to 1000 | – | –
11 | CC(C)(C)c1ncc(-c2nc3n(c(=O)c2C#N)CC(CO)CS3)cc1F (stereo not shown) [Example 92, 8-(6-(tert-butyl)-5-fluoropyridin-3-yl)-3-(hydroxymethyl)-6-oxo-3,4-dihydro-2H,6H-pyrimido[2,1-b][1,3]thiazine-7-carbonitrile] | > 1000 | – | –
12 | CC(C)(C)c1ncc(-c2nc3n(c(=O)c2C#N)C[C@@H](CF)CS3)cn1 [Example 141, (S)-8-(2-(tert-butyl)pyrimidin-5-yl)-3-(fluoromethyl)-6-oxo-3,4-dihydro-2H,6H-pyrimido[2,1-b][1,3]thiazine-7-carbonitrile] | 500 to 1000 | – | –
13 | CC1CSc2nc(-c3ccc(N4CC(C)(F)C4)nc3)c(C#N)c(=O)n2C1 (stereo not shown) [Example 51, 8-(6-(3-fluoro-3-methylazetidin-1-yl)pyridin-3-yl)-3-methyl-6-oxo-3,4-dihydro-2H,6H-pyrimido[2,1-b][1,3]thiazine-7-carbonitrile] | – | – | Inhibitor
14 | CC(=O)NCC1CSc2nc(-c3cnc(C(C)(C)C)c(F)c3)c(C#N)c(=O)n2C1 (stereo not shown) [Example 146, N-((8-(6-(tert-butyl)-5-fluoropyridin-3-yl)-7-cyano-6-oxo-3,4-dihydro-2H,6H-pyrimido[2,1-b][1,3]thiazin-3-yl)methyl)acetamide] | > 1000 | – | –
15 | CC(C)(C)c1ncc(-c2nc3n(c(=O)c2C#N)C[C@H](CF)CS3)cn1 [Example 142, (R)-8-(2-(tert-butyl)pyrimidin-5-yl)-3-(fluoromethyl)-6-oxo-3,4-dihydro-2H,6H-pyrimido[2,1-b][1,3]thiazine-7-carbonitrile] | 500 to 1000 | – | –

More lines, now with the values ahead:

Row | activation at 10 µM [1] [%] | Emax [2] [%] | NR2D Oocyte % Potentiation @ 10 uM [1] | SMILES
16 | 10 to 100 | 100 to 200 | – | CC(C)(C)c1cc(-c2nc3n(c(=O)c2C#N)CCCS3)ccn1 [Example 179, 8-(2-tert-butylpyridin-4-yl)-6-oxo-2H,3H,4H,6H-pyrimido[2,1-b][1,3]thiazine-7-carbonitrile]
17 | > 1000 | 100 to 200 | – | CC(C)(C)c1ccc(-c2nc3n(c(=O)c2C#N)CCCS3)cc1 [Example 184, 8-(4-tert-butylphenyl)-3,4-dihydro-6-oxo-2H,6H-pyrimido[2,1-b][1,3]thiazine-7-carbonitrile]
18 | – | 10 to 50 | – | COc1ccccc1-c1nc2n(c(=O)c1C#N)CCCS2 [Example 188, 8-(2-methoxyphenyl)-6-oxo-2H,3H,4H,6H-pyrimido[2,1-b][1,3]thiazine-7-carbonitrile]
19 | 10 to 100 | 100 to 200 | – | N#Cc1c(-c2cnc(C3CC3)nc2)nc2n(c1=O)CCCS2 [Example 178, 8-(2-cyclopropylpyrimidin-5-yl)-6-oxo-2H,3H,4H,6H-pyrimido[2,1-b][1,3]thiazine-7-carbonitrile]
20 | 100 to 500 | 100 to 200 | – | CC1CCSc2nc(-c3ccc(C(C)(C)C)nc3)c(C#N)c(=O)n21 (stereo not shown) [Example 50, 8-(6-(tert-butyl)pyridin-3-yl)-4-methyl-6-oxo-3,4-dihydro-2H,6H-pyrimido[2,1-b][1,3]thiazine-7-carbonitrile]
21 | – | 10 to 50 | – | COc1ccc(-c2nc3n(c(=O)c2C#N)CCCS3)c(OC)c1 [Example 186, 8-(2,4-dimethoxyphenyl)-6-oxo-2H,3H,4H,6H-pyrimido[2,1-b][1,3]thiazine-7-carbonitrile]
22 | – | 100 to 200 | – | CC(C)(C)c1ccc(-c2nc3n(c(=O)c2C#N)CC2(CC2)CS3)cc1 [Example 203, 8′-(4-tert-butylphenyl)-6′-oxo-4′,6′-dihydro-2′H-spiro[cyclopropane-1,3′-pyrimido[2,1-b][1,3]thiazine]-7′-carbonitrile]
23 | – | 100 to 200 | – | CC(C)(C)c1ccc(-c2nc3n(c(=O)c2C#N)CCCS3)s1 [Example 177, 8-(5-tert-butylthiophen-2-yl)-6-oxo-2H,3H,4H,6H-pyrimido[2,1-b][1,3]thiazine-7-carbonitrile]
24 | – | 50 to 100 | – | Cc1ccc(-c2nc3n(c(=O)c2C#N)CCCS3)cc1 [Example 185, 8-(4-methylphenyl)-6-oxo-2H,3H,4H,6H-pyrimido[2,1-b][1,3]thiazine-7-carbonitrile]
25 | > 1000 | – | – | CC(C)(C)c1ccc(-c2nc3n(c(=O)c2C#N)C[C@@H](CF)CS3)cn1 [Example 131, (S)-8-(6-(tert-butyl)pyridin-3-yl)-3-(fluoromethyl)-6-oxo-3,4-dihydro-2H,6H-pyrimido[2,1-b][1,3]thiazine-7-carbonitrile]
26 | 10 to 100 | – | – | C=Cc1c(-c2ccc(C(C)(C)C)cc2)nc2n(c1=O)CCCS2 [Example 32, 8-(4-(tert-butyl)phenyl)-7-vinyl-3,4-dihydro-2H,6H-pyrimido[2,1-b][1,3]thiazin-6-one]
